From patent publication US20070060550A1, “Methods of determining compounds useful in the treatment of bipolar disorder and methods of treating such disorders” (priority 2005, published 2007)
pKi: −log10 of the molar value.

Columns and labels:
[1] = test system: cortical neurons; assay: 3H-CDP-DAG accumulation assay of PIns recycling in carbachol-stimulated neurons; type: cell-based
From the text: PIns recycling that is limited by the supply of inositol can be assessed by loading cells with ^3H-cytidine, stimulating the cells with carbachol in the presence or absence of lithium, precipitating protein with trichloracetic acid, and then determining how much ^3H accumulates as ^3H-CDP-DAG in the lipid membrane compartment, which can be extracted with chloroform. […] Compounds specifically for this purpose may be designed by a number of computer programs suitable for this purpose.
A suitable screen therefore will determine compounds that can reverse the effect of lithium as measured by the accumulation of CDP-DAG in carbachol-stimulated neurons. Another means of screening for drugs that reverse the effect of lithium on PIns recycling is to screen for drugs that alter the supply of intracellular inositol in neurons by labelling them with titriated inositol and analysing the patterns of cytosolic inositol phosphates and membrane phoshoinositides: the novelty of this approach is to use cortical neurons rather than non-neural cells or neural cell lines. […] Additional known tricyclics such as protriptyline that could also be tested. […] The same assays can be used to test for other compounds that stimulate PIns cycling including other inhibitors of prolyl oligopeptidase activity.
The accumulation of tritiated CDP-DAG in the membrane fraction after loading cells with ^3H-cytidine or the incorporation of ^32P orthophosphate into membrane phospholipids can be used to assess changes in synthetic patterns in the presence or absence of compounds needing to be tested.

[2] = target: T1, prolyl oligopeptidase (Homo sapiens, UniProt P48147); assay: prolyl oligopeptidase fluorogenic enzyme assay (Z-Gly-Pro-aminomethyl coumarin); type: biochemical; details: for effect on prolyl oligopeptidase proteolytic activity: FIG. 9
T1 construct: poly-histidine; made in house; host or cells: E. coli
T1 sequence (P48147 1-710): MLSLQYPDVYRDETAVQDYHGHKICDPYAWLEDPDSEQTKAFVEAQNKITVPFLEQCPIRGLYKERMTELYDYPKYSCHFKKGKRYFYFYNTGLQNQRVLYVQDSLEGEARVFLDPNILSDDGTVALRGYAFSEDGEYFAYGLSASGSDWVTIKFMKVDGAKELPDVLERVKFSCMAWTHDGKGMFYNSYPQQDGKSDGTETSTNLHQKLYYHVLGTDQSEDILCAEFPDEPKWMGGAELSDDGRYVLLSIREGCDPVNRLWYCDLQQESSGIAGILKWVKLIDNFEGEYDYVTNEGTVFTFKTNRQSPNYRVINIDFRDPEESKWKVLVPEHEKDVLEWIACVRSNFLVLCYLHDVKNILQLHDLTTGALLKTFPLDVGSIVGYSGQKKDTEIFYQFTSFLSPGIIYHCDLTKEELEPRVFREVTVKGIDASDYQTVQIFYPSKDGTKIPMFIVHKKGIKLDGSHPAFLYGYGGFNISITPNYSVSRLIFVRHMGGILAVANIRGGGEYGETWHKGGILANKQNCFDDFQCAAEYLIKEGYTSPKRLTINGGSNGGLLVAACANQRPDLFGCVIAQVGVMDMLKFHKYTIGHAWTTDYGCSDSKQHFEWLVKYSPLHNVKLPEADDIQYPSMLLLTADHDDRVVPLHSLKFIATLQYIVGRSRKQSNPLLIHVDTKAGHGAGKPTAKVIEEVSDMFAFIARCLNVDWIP
From the text: For inhibitors of the enzymatic activity on the enzyme prolyl oligopeptidase, the relevant references for several assays can be found in Cheng et al., MCN 2005. Common assays use a peptide-based substrate which, when cleaved from a prorlyl bond, releases a fluorogenic signal that can be quantitated by spectrocopy.
Conveniently, the effect of the candidate compounds that inhibit enzyme activity can be assessed using a labeled substrate that is cleaved or otherwise modified by prolyl oligopeptidase to produce a detachable change such as release of a label. Thus, it is possible to screen candidate inhibitors by measuring the change in the signal from the label caused by the action of prolyl oligopeptidase in the presence and absence of a candidate inhibitor compound. A preferred substrate may be one in which a fluorescent label is employed, such as Z-Gly-Pro-aminomethyl coumarin.
Conveniently, prolyl oligopeptidase enzyme assays can be carried out using a standard fluorogenic assay with the synthetic substrate Z-Gly-Pro-aminomethyl coumarin obtained from Bachem, Switzerland. Recominant prolyl oligopeptidase was produced in E. coli transfected with cDNA encoding the human form of prolyl oligopeptidase cloned into a bacterial expression vector containing either an N-or a C-terminal poly-histidine tag in order to purify the expressed protein. cDNA encoding human […] can be obtained from the MRC's HGMP Resource Center, Hinxton Hall Cambridge, UK (Clone Image No. 3614248).

[3] = test system: sensory neuron growth cones; details: Williams et al., 2002; cited from earlier work
[4] = in vivo; cited from earlier work
[5] = test system: sensory neuron growth cones; assay: growth cone collapse / morphology in cultured neurons; type: cell-based
From the text: I used the growth cones as a model system for assessing changes in intracellular signalling events in response to drugs: The growth cones have some properties in common with presynaptic nerve terminals in the brain. I argued that, if the signalling changes we see in the growth cones of cultured neurons also occur in mature brain synapses in mood-related circuits, then these changes in neuronal signalling in response to the drugs would very likely affect synaptic transmission and thus also affect mood.
Another method of screening for suitable drugs for the prophylactic treatment of bipolar disorder is to look for compounds that have dual effects on the morphology of growth cones. Suitable compounds are those that can inhibit the collapse of growth cones in a way that is reversed by increasing extracellular inositol to 3 mM as well as reverse the effects of 20 μM carbamazepine or 3 mM valproic acid on the collapse of growth cones. Lamotrigine has such properties.

[6] = test system: HMIT; details: compared with SMIT; cited from earlier work

SMILES: CNCCCN1c2ccccc2CCc2ccccc21 [desipramine]
- concentrations at which the antidepressants act on the PIns cycle [1]: micromolar
- effect on prolyl oligopeptidase proteolytic activity [2]: Only valproic acid inhibited the enzyme

SMILES: CCCC(CCC)C(=O)O [valproic acid]
- effect on collapse of sensory neuron growth cones and growth cone area [3]: inhibit the collapse of sensory neuron growth cones and increase growth cone area
- therapeutic blood levels [4]: 0.3 to 0.7 mM
- effect on prolyl oligopeptidase proteolytic activity [2]: inhibited the enzyme
- pKi ([2]; read-out: Ki for direct inhibition of PO): ~3.00

SMILES: CNCCC(Oc1ccc(C(F)(F)F)cc1)c1ccccc1 (stereo not drawn) [fluoxetine]
- concentrations at which the antidepressants act on the PIns cycle [1]: micromolar
- reversal of the inhibitory effects of mood stabilizers on the PIns cycle ([1]; cycle first perturbed with lithium, valproic acid or carbamazepine): can reverse the inhibitory effects of lithium, valproic acid and carbamazepine on the PIns cycle
- effect on prolyl oligopeptidase proteolytic activity [2]: Only valproic acid inhibited the enzyme

SMILES: Nc1nnc(-c2cccc(Cl)c2Cl)c(N)n1 [lamotrigine]
- reversal of the action of carbamazepine or valproic acid on the growth cones ([5]; 20 μM carbamazepine or 3 mM valproic acid): can reverse the action of either carbamazepine or valproic acid on the growth cones
- effect on collapse of growth cones ([5]; compound alone): inhibits the collapse of growth cones
- reversal of the growth cone effect by inositol ([5]; increased extracellular inositol (3 mM)): reversed by increasing the extracellular concentration of inositol

SMILES: CN1c2ccccc2C(NCCCCCCC(=O)O)c2ccc(Cl)cc2S1(=O)=O (stereo not drawn) [tianeptine]
- effective doses in the 3H-CDP-DAG assay ([1]; abolition of lithium-induced accumulation, carbachol-stimulated neurons): 10^−6-10^−5 M
- effect on lithium-induced accumulation of 3H-CDP-DAG ([1]; carbachol-stimulated neurons, in presence of lithium): abolished the lithium-induced accumulation
- effect alone in the 3H-CDP-DAG assay ([1]; compound alone): no effect alone

SMILES: NC(=O)N1c2ccccc2C=Cc2ccccc21 [carbamazepine]
- effect on collapse of sensory neuron growth cones and growth cone area [3]: inhibit the collapse of sensory neuron growth cones and increase growth cone area
- effect on prolyl oligopeptidase proteolytic activity [2]: Only valproic acid inhibited the enzyme

SMILES: O=C(CCc1ccc(O)cc1)c1c(O)cc(O)cc1O [phloretin]
- strength of HMIT inhibition [6]: weak inhibitors of HMIT
